This is an account of results in paper PMC8151276, “An Integrated Approach toward NanoBRET Tracers for Analysis of GPCR Ligand Engagement” (Molecules, 2021).

Structures are written as SMILES.

Holding throughout (assay type): binding
In assay [1] the target is T1, GALR3 (Homo sapiens, UniProt O60755).
T1 construct: purchased Promega (in-house HiBiT-GPCR construct library, NanoBRET)
T1 sequence (O60755 1-368): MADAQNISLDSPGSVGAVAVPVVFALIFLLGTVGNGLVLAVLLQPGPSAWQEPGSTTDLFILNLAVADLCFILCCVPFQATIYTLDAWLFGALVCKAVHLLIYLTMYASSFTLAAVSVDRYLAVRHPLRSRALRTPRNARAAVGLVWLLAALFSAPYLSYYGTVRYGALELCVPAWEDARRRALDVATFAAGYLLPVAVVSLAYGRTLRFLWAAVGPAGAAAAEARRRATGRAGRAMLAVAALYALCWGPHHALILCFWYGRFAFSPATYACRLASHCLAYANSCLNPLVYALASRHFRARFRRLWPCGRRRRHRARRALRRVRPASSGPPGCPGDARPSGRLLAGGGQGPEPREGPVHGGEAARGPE
Nature of the assay: NanoBRET screen HiBiT-GALR3 in HEK293. As to the method:
(§1) Each tracer candidate was screened across the entire library of HiBiT-GPCR constructs using NanoBRET as the detection modality. As depicted in Figure 4A, the specificity of interactions was evaluated through decrease in BRET due to competitive displacement of a bound tracer by excess parental compound. Each tracer was analyzed for binding to each HiBiT-GPCR fusion in the absence and in the presence of competing parental compound. Briefly, HEK293 cells were transfected with HiBiT-GPCR constructs diluted into promoterless DNA to reduce expression and maximize translocation to the cell surface. Each tracer candidate was then screened at concentrations of 1 μM and 0.1 μM across cells expressing these fusions. Cells were treated for 1.5 h with tracer either alone or in the presence of 20 μM competing parental compound (i.e., control). BRET was measured upon addition of purified LgBiT and subsequent complementation with HiBiT genetically fused to a GPCR. The specificity of interactions was assessed through a decrease in BRET signal due to competitive displacement of the bound tracer. To further gauge the robustness of these interactions, the fold response over the control (i.e., BRETtracer/BRETcontrol) was calculated. We chose a 1.5-fold response, which translates to ≥7-fold signal over noise as the minimal threshold required to score an interaction as positive. […]. Below we highlight the screening results obtained for our exemplary fluorescent tracers based on Clozapine, Amitriptyline and AZD1283.
(§2) HiBiT-GPCR DNA constructs were diluted in 10 mM Tris pH 8 to a final concentration of 0.01 μg/μL, arrayed in 96-well plates and stored at −20 °C. For transfection, HEK293 cells were suspended in Opti-MEM (without phenol red) supplemented with 2% fetal bovine serum (Seradigm) and 100 units/mL penicillin–streptomycin (Gibco) at a final concentration of 220,000 cells/mL and dispensed into white 96-well plates at 90 μL/well. Subsequent transfections and screens were carried using an Agilent Bravo Automated Liquid Handling Platform. First, the 96-well HiBiT DNA arrays were diluted 25-fold in Opti-MEM (without serum or phenol red) to a final concentration of 0.0004 μg/μL and 20 μL of the diluted DNAs were transferred into new 96-well plates. Next, promoterless carrier DNA (1 μg/μL) was diluted 25-fold (0.04 μg/μL) and then dispensed into the diluted arrays at 20 μL/well. Following brief mixing, Viafect transfection reagent (Promega) diluted 16-fold into Opti-MEM was dispensed into the plates at 40 μL/well. After mixing by pipetting, plates were incubated for 10 min on the pipetting station deck. The DNA-transfection reagent complexes were then added to plates containing cells. To facilitate the screen, 10 μL of DNA-transfection reagent complexes were added in duplicates to the top 4 and bottom 4 rows, resulting in two identical 48-well arrays per plate. Plates with transfected cells were incubated for 18–20 h at 37 °C/5% CO2. A screen of each tracer across the entire library using two different concentrations requires duplicate plates of transfected cells. Depending on the number of tracers being screened, transfections can be scaled up using the same ratios. The next day, for each tracer, four 20× screening solutions in tracer dilution buffer (Promega) were prepared: two duplicates at final concentration of 20 μM and two duplicates at a final concentration of 2 μM. A competing unmodified compound was added to one of each duplicate at a final concentration of 400 μM. The four resulting solutions were diluted 4-fold in Opti-MEM without serum or phenol red to generate 5× solutions (5 µM and 0.5 µM tracer +/− 100 μM competing compound). To screen the library, a BioTek MultiFlo FX liquid dispenser was used to dispense 22.5 µL of tracer solution to the top 4 rows and 22.5 µL tracer + competing compound solution to the 4 bottom rows. Plates were briefly mixed on an orbital shaker and incubated for 1.5 h at room temperature. […]
For orientation: Bioluminescence resonance energy transfer reports proximity on the nanometre scale.

Assay [2] concerns the target T2, HRH2 (Homo sapiens, UniProt P25021).
T2 construct: purchased Promega (in-house HiBiT-GPCR construct library, NanoBRET)
Description: NanoBRET screen HiBiT-HRH2 in HEK293. As to the method:
as §1, §2

The target of assay [3] is T3, FZD5 (Homo sapiens, UniProt Q13467).
T3 construct: purchased Promega (in-house HiBiT-GPCR construct library, NanoBRET)
Nature of the assay: NanoBRET screen HiBiT-FZD5 in HEK293. As to the method:
as §1, §2

Assay [4] has as its target T4, NMUR2 (Homo sapiens, UniProt Q9GZQ4).
T4 construct: purchased Promega (in-house HiBiT-GPCR construct library, NanoBRET)
Description: NanoBRET screen HiBiT-NMUR2 in HEK293. As for the experimental part:
as §1, §2

Where [5] appears, read: tracer at 0.1μM, listed as amitriptyline-b-2-NB590.
Setting [6] is: tracer at 1μM, listed as amitriptyline-b-2-NB590.

T2 sequence (P25021 whole entry): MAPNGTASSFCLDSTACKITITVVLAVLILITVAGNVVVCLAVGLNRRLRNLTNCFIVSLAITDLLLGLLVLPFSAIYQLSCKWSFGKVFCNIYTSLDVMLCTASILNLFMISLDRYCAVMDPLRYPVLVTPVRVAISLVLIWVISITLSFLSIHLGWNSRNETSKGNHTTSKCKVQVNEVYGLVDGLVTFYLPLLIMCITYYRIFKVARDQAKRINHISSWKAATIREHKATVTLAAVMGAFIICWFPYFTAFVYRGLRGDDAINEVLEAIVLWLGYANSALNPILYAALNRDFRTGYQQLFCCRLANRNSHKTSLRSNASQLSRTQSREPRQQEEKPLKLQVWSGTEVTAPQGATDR
T3 sequence (Q13467 27-585): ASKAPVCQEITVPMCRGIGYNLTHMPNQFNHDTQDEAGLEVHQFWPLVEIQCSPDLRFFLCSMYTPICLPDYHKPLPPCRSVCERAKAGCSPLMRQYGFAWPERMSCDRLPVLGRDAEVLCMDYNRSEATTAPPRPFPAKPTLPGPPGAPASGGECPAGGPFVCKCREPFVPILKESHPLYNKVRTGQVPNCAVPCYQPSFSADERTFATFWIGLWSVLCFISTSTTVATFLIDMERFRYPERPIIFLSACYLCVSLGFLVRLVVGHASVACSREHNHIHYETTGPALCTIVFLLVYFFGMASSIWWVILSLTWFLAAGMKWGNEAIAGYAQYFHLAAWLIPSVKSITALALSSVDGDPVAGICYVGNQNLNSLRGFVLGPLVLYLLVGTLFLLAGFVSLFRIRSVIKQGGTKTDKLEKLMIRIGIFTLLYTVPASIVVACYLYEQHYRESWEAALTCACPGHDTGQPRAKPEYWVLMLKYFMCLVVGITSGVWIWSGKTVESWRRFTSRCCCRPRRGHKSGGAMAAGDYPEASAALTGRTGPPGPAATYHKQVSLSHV
T4 sequence (Q9GZQ4 whole entry): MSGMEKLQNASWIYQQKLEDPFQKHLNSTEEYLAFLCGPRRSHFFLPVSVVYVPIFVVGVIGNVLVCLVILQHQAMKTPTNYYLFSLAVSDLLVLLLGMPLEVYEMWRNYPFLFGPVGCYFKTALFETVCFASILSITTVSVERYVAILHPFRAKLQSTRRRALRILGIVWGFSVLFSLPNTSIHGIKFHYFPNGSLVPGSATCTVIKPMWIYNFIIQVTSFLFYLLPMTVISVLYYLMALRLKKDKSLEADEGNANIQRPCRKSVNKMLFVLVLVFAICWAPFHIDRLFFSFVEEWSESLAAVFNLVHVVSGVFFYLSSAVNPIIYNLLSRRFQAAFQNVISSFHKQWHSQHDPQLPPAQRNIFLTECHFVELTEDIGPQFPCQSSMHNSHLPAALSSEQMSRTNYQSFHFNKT

Turning to `CN1CCN(C2=Nc3cc(Cl)ccc3N(CC(=O)NCCOCCOCCOCCOCCNC(=O)CCc3ccc4n3[B-](F)(F)[N+]3=C(c5ccc[nH]5)C=CC3=C4)c3ccccc32)CC1` [Clozapine-c-2-NB590], the “NanoBRET Fold Response” value in assay [1] (GALR3, 0.1μM tracer) was 1.01; in assay [1] (GALR3, 1μM tracer) it was 1.04; in assay [2] (HRH2, 0.1μM tracer), 0.92; in assay [2] (HRH2, 1μM tracer), 0.95; in assay [3] (FZD5, 0.1μM tracer) it was 1.00; in assay [3] (FZD5, 1μM tracer), 1.04. For the same compound, the “NanoBRET Fold Response” value is listed as 1.12 in assay [4] (NMUR2, 0.1μM tracer) and 0.92 in assay [4] (NMUR2, 1μM tracer).

In the case of `N#CN=C(NCCCOc1cccc(CN2CCCCC2)c1)NCCNC(=O)CCOCCOCCOCCOCCNC(=O)CCc1ccc2n1[B-](F)(F)[N+]1=C(c3ccc[nH]3)C=CC1=C2` [Aminopotentidine-2-NB590], the “NanoBRET Fold Response” value in assay [1] (GALR3, tracer 0.1μM) was determined as 1.09; in assay [1] (GALR3, tracer 1μM), 1.01; in assay [2] (HRH2, tracer 0.1μM), 5.51; in assay [2] (HRH2, tracer 1μM), 3.65; in assay [3] (FZD5, tracer 0.1μM), 1.06; in assay [3] (FZD5, tracer 1μM), 1.05. The “NanoBRET Fold Response” value in assay [4] (NMUR2, tracer 0.1μM) came out at 1.02; in assay [4] (NMUR2, tracer 1μM), 1.05.

Consider `COc1ccc2c(n1)c(CCNC(C)=O)cn2CCNC(=O)CCc1ccc2n1[B-](F)(F)[N+]1=C(c3ccc[nH]3)C=CC1=C2` [Azamelatonin-1-NB590], for which the “NanoBRET Fold Response” value is 0.81 in assay [1] (0.1μM tracer); 1.05 in assay [1] (1μM tracer); 0.99 in assay [2] (0.1μM tracer); 0.99 in assay [2] (1μM tracer); 0.88 in assay [3] (0.1μM tracer); 0.88 in assay [3] (1μM tracer). The results for the “NanoBRET Fold Response” value in assay [4] (0.1μM tracer) and in assay [4] (1μM tracer) were 1.00 and 1.16, respectively.

`CC(C)N(CC[C@H](c1ccccc1)c1cc(CCNC(=O)c2ccc(CNC(=O)CCc3ccc4n3[B-](F)(F)[N+]3=C(c5ccc[nH]5)C=CC3=C4)cc2)ccc1O)C(C)C` [Tolterodine-BZ-NB590]: the “NanoBRET Fold Response” value in assay [1] (GALR3, tracer 0.1μM) is reported as 1.09; in assay [1] (GALR3, tracer 1μM), 1.00; in assay [2] (HRH2, tracer 0.1μM), 1.05; in assay [2] (HRH2, tracer 1μM), 0.87; in assay [3] (FZD5, tracer 0.1μM), 1.12; in assay [3] (FZD5, tracer 1μM) it was 1.03. Besides, the “NanoBRET Fold Response” value is 1.00 in assay [4] (NMUR2, tracer 0.1μM) and 1.06 in assay [4] (NMUR2, tracer 1μM).

`O=C(CCc1ccc2n1[B-](F)(F)[N+]1=C(c3ccc[nH]3)C=CC1=C2)NCCOCCOCCNC(=O)OCCOCCN1CCN(C2=Nc3ccccc3Sc3ccccc32)CC1` [Quetiapine-a-2-NB590]: the “NanoBRET Fold Response” value in assay [1] (GALR3, tracer 0.1μM) worked out at 1.02; in assay [1] (GALR3, tracer 1μM), 0.73; in assay [2] (HRH2, tracer 0.1μM), 0.81; in assay [2] (HRH2, tracer 1μM) it was 1.05; in assay [3] (FZD5, tracer 0.1μM), 1.03; in assay [3] (FZD5, tracer 1μM), 0.91. Also, the “NanoBRET Fold Response” value in assay [4] (NMUR2, tracer 0.1μM) came out at 1.02; in assay [4] (NMUR2, tracer 1μM), 0.82.

On to `Cc1cc2c(s1)Nc1ccccc1N=C2N1CCN(CCCNC(=O)CCOCCOCCOCCOCCNC(=O)CCc2ccc3n2[B-](F)(F)[N+]2=C(c4ccc[nH]4)C=CC2=C3)CC1` [Olanzapine-a-2-NB590], for which the “NanoBRET Fold Response” value in assay [1] (GALR3, tracer 0.1μM) is 1.12; in assay [1] (GALR3, tracer 1μM), 0.87; in assay [2] (HRH2, tracer 0.1μM) it was 0.89; in assay [2] (HRH2, tracer 1μM), 0.85; in assay [3] (FZD5, tracer 0.1μM), 1.00; in assay [3] (FZD5, tracer 1μM) it was 1.02. Further, the “NanoBRET Fold Response” value was 0.94 in assay [4] (NMUR2, tracer 0.1μM) and 0.98 in assay [4] (NMUR2, tracer 1μM).

As to `CN(C)CCC=C1c2ccccc2CCc2ccc(C(=O)NCCNC(=O)CCOCCOCCOCCOCCNC(=O)CCc3ccc4n3[B-](F)(F)[N+]3=C(c5ccc[nH]5)C=CC3=C4)cc21` [Amitriptyline-b-2-NB590], the “NanoBRET Fold Response” value came to 1.46 in assay [1] (setting [5]); 0.95 in assay [1] (setting [6]); 0.85 in assay [2] (setting [5]); 1.05 in assay [2] (setting [6]); 0.97 in assay [3] (tracer at 0.1μM); 0.99 in assay [3] (setting [6]). The “NanoBRET Fold Response” value in assay [4] (setting [5]) turned out to be 0.99; in assay [4] (setting [6]), 1.00.

For the compound `O=C(CCOCCOCCOCCOCCNC(=O)CCc1ccc2n1[B-](F)(F)[N+]1=C(c3ccc[nH]3)C=CC1=C2)NCCCN1CCN(C2=Nc3cc(Cl)ccc3Nc3ccccc32)CC1` [Clozapine-a-2-NB590], the “NanoBRET Fold Response” value in assay [1] (GALR3, 0.1μM tracer) came to 1.02; in assay [1] (GALR3, 1μM tracer), 1.13; in assay [2] (HRH2, 0.1μM tracer) it was 0.95; in assay [2] (HRH2, 1μM tracer), 0.89; in assay [3] (FZD5, 0.1μM tracer) it was 1.15; in assay [3] (FZD5, 1μM tracer) it was 0.95. Also, the “NanoBRET Fold Response” value in assay [4] (NMUR2, 0.1μM tracer) is recorded as 0.93; in assay [4] (NMUR2, 1μM tracer) it was 1.01.

On to `CN1CCN(C2=Nc3cc(Cl)ccc3Nc3ccc(CNC(=O)CCOCCOCCOCCOCCNC(=O)CCc4ccc5n4[B-](F)(F)[N+]4=C(c6ccc[nH]6)C=CC4=C5)cc32)CC1` [Clozapine-b-2-NB590], for which the “NanoBRET Fold Response” value is given as 0.93 in assay [1] (GALR3, 0.1μM tracer); 0.91 in assay [1] (GALR3, 1μM tracer); 1.01 in assay [2] (HRH2, 0.1μM tracer); 0.97 in assay [2] (HRH2, 1μM tracer); 1.00 in assay [3] (FZD5, 0.1μM tracer); 1.04 in assay [3] (FZD5, 1μM tracer). The “NanoBRET Fold Response” value is reported as 0.97 in assay [4] (NMUR2, 0.1μM tracer) and 1.00 in assay [4] (NMUR2, 1μM tracer).

Regarding `Cc1nc2n(c(=O)c1CCN1CCC(c3noc4cc(F)ccc34)CC1)CCCC2OC(=O)NCCOCCOCCOCCOCCNC(=O)CCc1ccc2n1[B-](F)(F)[N+]1=C(c3ccc[nH]3)C=CC1=C2` (centres unmarked) [Risperidone-2-NB590], the “NanoBRET Fold Response” value in assay [1] (GALR3, tracer 0.1μM) turned out to be 0.90; in assay [1] (GALR3, tracer 1μM), 0.94; in assay [2] (HRH2, tracer 0.1μM), 1.05; in assay [2] (HRH2, tracer 1μM), 1.13; in assay [3] (FZD5, tracer 0.1μM), 0.95; in assay [3] (FZD5, tracer 1μM) it was 0.99. The “NanoBRET Fold Response” value was found to be 1.09 in assay [4] (NMUR2, tracer 0.1μM) and 1.05 in assay [4] (NMUR2, tracer 1μM).
